Test results as given in article PMC3265452 (PLoS Neglected Tropical Diseases, 2012).
Where a name gives a salt, the structure may show the parent alone. Read-outs that look alike come from different tables or passages of the source.

What was measured:
[1] = biological target: T1, AaDOP1 (Aedes aegypti, UniProt H6D5H1); experiment: CRELuc reporter dose-response in HEK293 cells stably expressing AaDOP1; format: cell-based
[2] = biological target: T2, AaDOP2 (Aedes aegypti, UniProt H6D5H2); experiment: cell-based
T2 sequence (H6D5H2 1-476): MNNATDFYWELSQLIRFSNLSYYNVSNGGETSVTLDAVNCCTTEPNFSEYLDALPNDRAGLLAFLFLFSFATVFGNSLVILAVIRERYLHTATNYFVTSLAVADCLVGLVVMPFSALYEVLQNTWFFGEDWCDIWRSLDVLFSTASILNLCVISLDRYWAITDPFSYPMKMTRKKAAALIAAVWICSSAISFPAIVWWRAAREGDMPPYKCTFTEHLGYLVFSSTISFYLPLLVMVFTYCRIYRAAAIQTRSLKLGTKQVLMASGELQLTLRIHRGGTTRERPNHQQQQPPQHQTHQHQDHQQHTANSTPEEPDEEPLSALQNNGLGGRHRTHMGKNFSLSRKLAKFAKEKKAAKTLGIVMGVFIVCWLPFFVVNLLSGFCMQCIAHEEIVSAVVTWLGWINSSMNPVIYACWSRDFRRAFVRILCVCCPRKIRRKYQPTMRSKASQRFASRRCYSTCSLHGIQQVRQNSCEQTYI

[3] = biological target: T2, AaDOP2; experiment: AaDOP2 antagonist screen of the LOPAC1280 library (HEK-CRELuc-Aadop2 cells, luminescence); format: cell-based; details: for inhibition at 10 µM: read-out: % of the SCH23390 effect (percent inhibition of receptor response relative to the SCH23390 control)
[4] = biological target: T3, human D1 dopamine receptor (hD1) (Homo sapiens, UniProt P21728); experiment: cAMP accumulation secondary assay, hD1-expressing cells; format: cell-based
T3 construct: expressed in transfected cells
T3 sequence (P21728 whole entry): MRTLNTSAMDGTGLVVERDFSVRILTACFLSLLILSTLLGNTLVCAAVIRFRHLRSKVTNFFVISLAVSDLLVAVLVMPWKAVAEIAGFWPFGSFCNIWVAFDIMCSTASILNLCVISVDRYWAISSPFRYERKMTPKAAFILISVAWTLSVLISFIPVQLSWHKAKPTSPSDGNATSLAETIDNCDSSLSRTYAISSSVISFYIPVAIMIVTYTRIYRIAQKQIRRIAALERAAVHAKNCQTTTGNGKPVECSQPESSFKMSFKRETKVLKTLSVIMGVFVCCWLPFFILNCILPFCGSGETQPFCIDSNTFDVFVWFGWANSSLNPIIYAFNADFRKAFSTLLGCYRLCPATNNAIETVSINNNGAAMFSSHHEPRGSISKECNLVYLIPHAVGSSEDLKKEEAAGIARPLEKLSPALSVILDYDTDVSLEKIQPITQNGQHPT

[5] = biological target: T2, AaDOP2; details: for Relative fold selectivity for AaDOP2 vs. hD1: from IC50 values at AaDOP2 and hD1
[6] = test system: Ae. aegypti L4-stage larvae (Liverpool strain); experiment: whole plant or invertebrate; format: in vivo, Aedes aegypti; details: for average mortality: single dose-point 400 µM, 24 hours post-treatment
Protocol: Single dose-point and dose response in vivo mosquito bioassays were used to assess the toxicity of selected AaDOP2 receptor antagonists identified in the chemical screen. Larvae of Ae. aegypti (Liverpool strain) were reared under standard laboratory conditions on a 12 hr day/night cycle at 75% RH and 28°C, and bioassays were conducted at room temperature (22–24°C). Larvae were transferred from standard rearing trays into six-well tissue culture plates (Corning, Inc. Corning, NY) using a small plastic pipette. Ten L4-stage larvae were included per well, each containing five ml of de-ionized water and the assigned drug concentration. Controls were conducted similarly but lacked a drug treatment. Bioassays employed a double-blind experimental design, and percent mortality was scored 24 hr following administration of drugs. Single dose-point assays were conducted using 400 µM drug and included three biological replicates each consisting of 50–100 larvae. Dose-response assays were conducted using five doses (400, 200, 100, 50, and 25 µM) of the compounds suspended in water, with water alone as a control. Five technical replicates, each including 10 larvae, were performed per dose, and the assay was repeated three times.

[7] = biological target: T2, AaDOP2; experiment: cell-based; remark: listed apart in the source
[8] = biological target: T2, AaDOP2
[9] = biological target: T1, AaDOP1; details: single dose of dopamine 10 µM, n = 3
[10] = biological target: T2, AaDOP2; details: single dose of dopamine 10 µM, n = 3
[11] = HEK293 cells stably expressing CRELuc reporter and AaDOP1, read-out: EC50 values AaDOP1
[12] = 10 µM SCH23390 in the presence of 1 µM dopamine

T1 sequence (H6D5H1 entry or part of it): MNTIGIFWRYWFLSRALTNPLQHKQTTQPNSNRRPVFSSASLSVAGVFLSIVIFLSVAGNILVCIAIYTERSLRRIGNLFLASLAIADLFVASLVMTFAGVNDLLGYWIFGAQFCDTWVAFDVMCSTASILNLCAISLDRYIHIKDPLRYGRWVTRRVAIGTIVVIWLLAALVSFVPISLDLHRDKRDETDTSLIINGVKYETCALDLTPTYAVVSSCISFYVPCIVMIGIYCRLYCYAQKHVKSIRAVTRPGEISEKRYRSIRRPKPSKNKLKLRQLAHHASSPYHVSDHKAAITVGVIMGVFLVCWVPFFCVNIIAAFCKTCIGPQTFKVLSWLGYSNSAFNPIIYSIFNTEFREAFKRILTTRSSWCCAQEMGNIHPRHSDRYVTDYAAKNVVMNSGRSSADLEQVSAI

Oc1cc2c(cc1O)[C@H]1c3ccccc3CN[C@@H]1CC2 (racemic) [Dihydrexidine, dihydrexidine]
EC50 [1, 11]: 6.9 ± 1.5 nM | EC50 [2]: 290 ± 54 nM

CN(C)CCC=C1c2ccccc2CCc2ccccc21 [Compound 92, Amitriptyline hydrochloride]
Compound effect (percent receptor signaling in presence of test compound, relative lux units relative to the SCH23390 control) [3]: 10 | inhibition at 10 µM [3]: 90% | IC50 [4]: 470 ± 49 nM | Relative fold selectivity for AaDOP2 vs. hD1 ([5]; listed as Amitriptyline): 36 fold | Relative fold selectivity for AaDOP2 vs. hD1 ([5]; listed as amitriptyline): more than 30 fold | LC50 ([6]; Aedes aegypti, 24 h): 78000 nM | LC90 ([6]; dose-response 25-400 µM, 24 hr): 185000 nM | average mortality [6]: 93% | IC50 [7]: 14 ± 3.4 nM

NC[C@H](O)c1ccc(O)c(O)c1 [Compound 106, L(-)-Norepinephrine bitartrate]
Compound effect (percent receptor signaling in presence of test compound, relative lux units relative to the SCH23390 control) [3]: 115 | EC50 [1]: 760 ± 180 nM | EC50 [2]: ≥ 10000 nM

CN(C)CCC=C1c2ccccc2COc2ccccc21 [Compound 386, Doxepin hydrochloride]
average mortality [6]: 72%

CN1CCc2cc(Cl)c(O)cc2[C@@H](c2ccccc2)C1 [Compound 446, R(+)-SCH-23390 hydrochloride]
inhibition at 10 µM [3]: 83% | inhibition of dopamine-mediated stimulation of AaDOP1 [1, 12]: robustly inhibited | inhibition of dopamine-mediated stimulation of AaDOP2 [8, 12]: robustly inhibited | IC50 [7]: 1600 ± 73 nM

CNC[C@H](O)c1ccc(O)c(O)c1 [Compound 491, (-)-Epinephrine bitartrate]
EC50 [2]: ≥ 10000 nM

OCCN1CCN(CC/C=C2/c3ccccc3Sc3ccc(C(F)(F)F)cc32)CC1 [Compound 541, cis-(Z)-Flupenthixol dihydrochloride, reference compound]
inhibition at 10 µM [3]: 88% | IC50 [7]: 20 ± 5.4 nM

NCCc1c[nH]cn1 [Compound 596, Histamine dihydrochloride]
EC50 ([1]; HEK293 cells stably expressing CRELuc reporter and AaDOP1, ≥10 µM considered lacking intrinsic activity, read-out: EC50 values AaDOP1): ≥ 10000 nM | EC50 [2]: ≥ 10000 nM

NCCc1ccc(O)c(O)c1 [Compound 603, Dopamine hydrochloride]
increase of intracellular cAMP [9]: 2.7±0.6 fold | EC50 [1]: 3.1 ± 1.1 nM | increase of intracellular cAMP [10]: 48±14 fold

NCCc1c[nH]c2ccc(O)cc12 [Compound 613, Serotonin hydrochloride]
Compound effect (percent receptor signaling in presence of test compound, relative lux units relative to the SCH23390 control) [3]: 110 | EC50 [1]: ≥ 10000 nM | EC50 [2]: ≥ 10000 nM

O=C(Nc1ccc([N+](=O)[O-])cc1Cl)c1cc(Cl)ccc1O [Compound 847, Niclosamide, reference compound]
Compound effect (percent receptor signaling in presence of test compound, relative lux units relative to the SCH23390 control) [3]: 5 | inhibition at 10 µM [3]: 95% | IC50 [7]: ≥ 10000 nM

Oc1cc(O)cc(/C=C/c2ccc(O)c(O)c2)c1 [Compound 916, Piceatannol, reference compound]
Compound effect (percent receptor signaling in presence of test compound, relative lux units relative to the SCH23390 control) [3]: 2 | inhibition at 10 µM [3]: 98% | IC50 [7]: ≥ 10000 nM

Oc1ccc(/C=C/c2cc(O)cc(O)c2)cc1 [Compound 1048, Resveratrol, reference compound]
Compound effect (percent receptor signaling in presence of test compound, relative lux units relative to the SCH23390 control) [3]: 11 | inhibition at 10 µM [3]: 89% | IC50 [7]: ≥ 10000 nM

NCCc1ccc(O)cc1 [Compound 1162, 4-Hydroxyphenethylamine hydrochloride]
EC50 [1]: ≥ 10000 nM | EC50 [2]: ≥ 10000 nM

CSc1ccc2c(c1)C(N1CCN(C)CC1)Cc1ccccc1S2.O=C(O)/C=C\C(=O)O (stereo not drawn) [Methiothepin, methiothepin maleate]
IC50 ([4]; read-out: IC50 value (at 100 nM dopamine for hD1), 100 nM dopamine, cAMP accumulation): 80 ± 11 nM | Relative fold selectivity for AaDOP2 vs. hD1 [5]: 5.7 fold | IC50 ([5]; read-out: IC50 value (at 3 µM dopamine for AaDOP2), 3 µM dopamine, cAMP accumulation): 14 ± 5.1 nM

Oc1cc2c(cc1O)C(c1ccccc1)CNCC2 (stereo not drawn) [SKF 38393]
EC50 [1, 11]: 310 ± 46 nM | EC50 [2]: ≥ 10000 nM

Oc1cc2c(c(Cl)c1O)CCNCC2c1ccccc1 (stereo not drawn) [SKF 81297]
EC50 [1, 11]: 24 ± 7 nM | EC50 ([8]; read-out: EC50 values AaDOP2, HEK293 cells stably expressing CRELuc reporter and AaDOP2, ≥10 µM considered lacking intrinsic activity): ≥ 10000 nM

VER-3323 hemifumarate salt [Compound 706]
Compound effect (percent receptor signaling in presence of test compound, relative lux units relative to the SCH23390 control) [3]: 82

WB 64 [Compound 1263]
Compound effect (percent receptor signaling in presence of test compound, relative lux units relative to the SCH23390 control) [3]: 83

cis-(±)-8-OH-PBZI hydrobromide [Compound 918]
Compound effect (percent receptor signaling in presence of test compound, relative lux units relative to the SCH23390 control) ([3]; 10 µM compound, 300 nM dopamine, 2 hr, hit = compound effect <20): 88%
